Results: patent publication US4913905A, “Transdermal therapeutic systems for active ingredient combinations” (priority 1987, dated 1990)

Tests used:
[1] = Therapeutically effective daily dose (oral / transdermal); assay type: in vivo; settings: estimated values
[2] = cited from earlier work
[3] = In vitro flux through pig skin in a Franz diffusion cell (saturated ethanolic solution or system of Example 1); settings: for skin permeation in vitro, alcoholic solution: saturated ethanolic solution
Description: The flux of progesterone and synthetic progestrone derivatives is measured in vitro as follows:
After 24 hours, an aliquot of the aqueous acceptor solution from the acceptor compartment is examined for content of the relevant progesterone derivative and, from this, the flux in μg cm^2 ×h is calculated.

endometrium carcinomas = settings: following treatment; numerous studies in the USA; cited from earlier work
[4] = cited from earlier work; remark: listed apart in the source
[5] = vehicle of DE-A No. 3 205 258, e.g. ethanol gel; systems of acceptable size; cited from earlier work

| SMILES | therapeutically effective daily dose, transdermal [1] [mg] | therapeutically effective daily dose, oral [2] [mg] | skin permeation in vitro, alcoholic solution ([3]; pig skin, 24 hours) [μg/cm^2 · h] | further results |
| --- | --- | --- | --- | --- |
| C#C[C@]1(O)CC[C@H]2[C@@H]3CCC4=CC(=O)CC[C@@H]4[C@H]3CC[C@@]21CC [d-norgestrel] | 0.05 | 0.07 to 0.15 | 0.028 |  |
| CC(=O)O[C@]1(C(C)=O)CC[C@H]2[C@@H]3C[C@H](C)C4=CC(=O)CC[C@]4(C)[C@H]3CC[C@@]21C [medroxyprogesterone acetate] | 2 | 2.5 to 10 |  |  |
| C#C[C@]1(OC(C)=O)CC[C@H]2[C@@H]3CCC4=CC(=O)CC[C@@H]4[C@H]3CC[C@@]21C [norethisterone acetate, norethisterone-17-acetate] | 2 | 0.5 to 5 |  |  |
| C#C[C@]1(O)CC[C@H]2[C@@H]3CCC4=CC(=O)CC[C@@H]4[C@H]3CC[C@@]21C [norethisterone] | 0.2 | 0.5 to 5 | 0.024 | necessary surface area of system ([3]; estimated values): 350 cm^2 |
| CCCCC(=O)O[C@H]1CC[C@H]2[C@@H]3CCc4cc(O)ccc4[C@H]3CC[C@]12C [oestradiol valerate, estradiol-17-valerate] |  |  |  | times higher incidence of endometrium carcinomas (endometrium carcinomas): 3.3 to 6 times |
| C[C@]12CC[C@@H]3c4ccc(O)cc4CC[C@H]3[C@@H]1CC[C@@H]2O [oestradiol, 17β-oestradiol] |  |  |  | times higher incidence of endometrium carcinomas (endometrium carcinomas): 3.3 to 6 times; resorption following oral administration [4]: unsatisfactory; undesirable side-effects ([4]; oral, high dosage, frequent occurrence): nausea, thromboembolism; metabolisation by the liver ([4]; oral): rapid |
| CC(=O)[C@H]1CC[C@H]2[C@@H]3CCC4=CC(=O)CC[C@]4(C)[C@H]3CC[C@]12C [progesterone] | 2 | 100 to 300 | 3.0 | amount that passes through the skin for an adequate therapeutic effect [5]: not sufficient; skin permeation in vitro, system according Example 1 ([3]; transdermal therapeutic system according to Example 1, pig skin, 24 hours): 0.073 μg/cm^2 · h |
